Measured values reported in patent US9795588B2, “Mammalian TOR inhibitor” (Chang Gung University, priority 2016, dated 2017).

Legend:
[1] = test system: Mouse adipocytes (3T3-L1); test: Adipocyte differentiation, oil-red O staining; type: cell-based; conditions: 3T3-L1 co-treated with DMI, 8 days, FIG. 6
Experimental: Mouse adipocytes (3T3-L1) were co-treated with DMI (5 μM of dexamethasone, 0.5 mM of 3-isobutyl-1-methylxanthine, and 0.1724 mM of insulin) and different chemicals. After being cultured for 8 days, the cell media was removed and oil-red O staining was used to analyze these adipocytes' differentiation.

[2] = test system: yeast cells; test: Replicative life span of yeast cells (passage number); type: cell-based; conditions: YEPD media, 30° C.; FIG. 2
Experimental: A yeast colony was selected and cultured in a YEPD culture media. When the OD value of the media was at 0.6-0.8, 20 μl of the media containing different chemicals was added to a YEPD solid media, and then 20-30 yeast cells were selected using a tetrad dissection microscope manipulation system. The selected yeast cells were cultured at 30° C. for 3-5 hours to divide into first generation yeast cells. Afterwards, the first generation yeast cells were cultured at 30° C. for 3-5 hours to divide into second generation yeast cells. The culturing step was repeated until final generation yeast cells which cannot divide anymore existed. Finally, the yeast cells' passage number was counted according to the total division number.

[3] = test system: human umbilical vein endothelial cells (HUVEC); test: SA-βgal cellular aging assay in HUVEC; type: cell-based; conditions: corylin in different concentrations, successive generations, FIG. 3
Experimental: In addition, human umbilical vein endothelial cells (HUVEC) were treated with corylin in different concentrations, and the cells at this moment were called first generation cells. Second generation cells grew by culturing the first generation cells for 2-3 days, and then the second generation cells were treated with corylin in different concentrations. Third to Nth generation cells grew by repeating the culturing process. During each culture process, SA-βgal assay was used to analyze the responding generation cells. The more SA-βgal positive cells the cultured cells contained, the older the cultured cells were.

[4] = test system: S6K phosphorylation; test: S6K phosphorylation by Western blotting in U2OS cells; type: cell-based, human; conditions: 8 hours
Experimental: Human osteosarcoma (U2OS) cells were treated with different chemicals in different concentrations. After the cells were cultured for 8 hours, the protein therein was extracted. Finally, Western blotting assay was used to analyze the extracted protein. […] Moreover, human osteosarcoma cells were pre-treated with mammalian SIRT1 inhibitor EX-527 for 1 hour. Afterwards, those cells were treated with 100 μM corylin and cultured for 8 hours. Finally, Western blotting assay was used to analyze the protein extracted from those cells.

[5] = test system: S6K phosphorylation caused by insulin; test: Insulin-induced S6K phosphorylation by Western blotting; type: cell-based; conditions: human osteosarcoma cells, 400 nM insulin, 10 minutes; FIG. 7
Experimental: High concentration insulin can cause phosphorylation and thus cells are resistant to insulin, which is one cause for type II diabetes. In order to mimic type II diabetes, human osteosarcoma cells were cultured in 400 nM of insulin and different chemicals for 10 minutes. After which, Western blotting assay was used to analyze the protein in these cells.

[6] = test system: ICAM-1 expression; test: Lipopolysaccharide-induced ICAM-1 expression by Western blotting in HASMC; type: cell-based, human; conditions: corylin 24 hours then lipopolysaccharide 24 hours, FIG. 8
Experimental: Lipopolysaccharide can induce immune response on blood vessels. During immune response, blood vessels can also overexpress ICAM-1, which is one cause of cardiovascular disease. To mimic this disease, human aortic smooth muscle cells (HASMC) were treated with corylin in different concentrations and then cultured for 24 hours. After these cells were treated with lipopolysaccharide for 24 hours, the protein in these cells was extracted and analyzed by Western blotting assay.

[7] = test system: Male C57BL/6 mice on high-fat diet; test: High-fat diet mice: body, liver and white adipocytes tissue weights; type: in vivo, mouse; conditions: HFD mice, gavage 100 mg/kg, end of treatment
Experimental: (§1) Male C57BL/6 mice (8 weeks old) were purchased from the National Laboratory Animal Center. Mice were divided into three groups (n=6 each group): chow diet; high-fat diet (HFD, 60% ResearchDiet, D12492); and HFD gavage with corylin at 100 mg/kg. To compare the metabolic effects of corylin, parameters such as body weights, liver weights and white adipocytes tissue (WAT) weights from epididymal, inguinal and axilla subcutaneous were measured at the end of the treatment.

[8] = test system: Male C57BL/6 mice on high-fat diet; test: Intraperitoneal glucose tolerance testing in mice; type: in vivo, mouse; conditions: mice fasted 16 hours, 2 g/kg glucose, 0-120 min; FIG. 12
Experimental: as §1, with “treatment. […] For intraperitoneal glucose tolerance testing, mice were fasted for 16 hours and then injected with 2 g/kg of glucose solution. For insulin tolerance testing, mice were fasted for 3 hours and then injected with 1.2 U/kg insulin. Serum blood glucose levels were measured at 0, 15, 30, 60, 90, and 120 min after glucose and insulin injection.” for “treatment.”

[9] = test system: Male C57BL/6 mice on high-fat diet; test: Insulin tolerance testing in mice; type: in vivo, mouse; conditions: mice fasted 3 hours, 1.2 U/kg insulin, 0-120 min; FIG. 13
Experimental: as §1, with “treatment. […] For intraperitoneal glucose tolerance testing, mice were fasted for 16 hours and then injected with 2 g/kg of glucose solution. For insulin tolerance testing, mice were fasted for 3 hours and then injected with 1.2 U/kg insulin. Serum blood glucose levels were measured at 0, 15, 30, 60, 90, and 120 min after glucose and insulin injection.” for “treatment.”

| Molecule | inhibition of adipocytes' differentiation [1] | yeast cells' passage number (replicative life span) [2] | cells' aging (SA-βgal positive cells) [3] | interference of SIRT1 inhibitor EX-527 with corylin's effect on S6K phosphorylation ([4]; U2OS cells pre-treated with EX-527 for 1 hour, then 100 μM corylin, FIG. 5) | S6K phosphorylation ([4]; U2OS cells, different concentrations, FIG. 4) | S6K phosphorylation caused by insulin [5] | ICAM-1 expression caused by lipopolysaccharide [6] | body weight ([7]; FIG. 9) | liver weight ([7]; FIG. 10) | intraperitoneal glucose tolerance (serum blood glucose) [8] | insulin tolerance (serum blood glucose) [9] |
| --- | --- | --- | --- | --- | --- | --- | --- | --- | --- | --- | --- |
| Oc1ccc(C=Cc2cc(O)cc(O)c2)cc1 [resveratrol, reference compound] | inhibition of adipocytes' differentiation |  |  |  |  |  |  |  |  |  |  |
| corylin | more obvious than that caused by resveratrol | can increase yeast cells' passage number | can inhibit the cells' aging in dose-dependent manner | cannot interfere with the S6K phosphorylation caused by corylin | can suppress S6K phosphorylation in dose-dependent manner | can suppress such phosphorylation caused by insulin | can inhibit ICAM-1 expression caused by lipopolysaccharide | has an effect on the reduction of body weight | has an effect on the reduction of | can lower intraperitoneal glucose tolerance | can lower |
